The results in this text go back to US10821100B2, “Triazolone compounds as mPGES-1 inhibitors” (Glenmark Pharmaceuticals S.A., priority 2012, dated 2020).

The test has as its target T1, Recombinant human mPGES-1 (Homo sapiens, UniProt O14684).
T1 construct: made in house; host or cells: CHO cells (crude microsomal fractions)
T1 sequence (O14684 1-152): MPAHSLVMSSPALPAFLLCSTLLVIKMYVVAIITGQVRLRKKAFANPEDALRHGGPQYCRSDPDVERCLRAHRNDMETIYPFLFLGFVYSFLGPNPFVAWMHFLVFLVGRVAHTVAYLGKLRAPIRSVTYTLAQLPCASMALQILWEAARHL
The experiment in a line: In-vitro screening of mPGES-1 inhibitors (inhibition of PGE2 formation from PGH2, HTRF detection). In kind it is biochemical. As to conditions: mPGES-1 enzyme; for inhibition at 1 µM: 1 μM test compound, read-out: Percentage inhibition at 1 μM; for inhibition at 1 µM / inhibition at 10 µM: crude microsomal fractions; for inhibition at 10 µM: 10 μM test compound, read-out: Percentage inhibition at 10 μM; for IC50: class symbols. The gist of the method: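 Crude CHO-expressed microsomes (40–60 μg/mL protein) preincubated 10 min with compound in 0.1 M potassium phosphate/2 mM EDTA containing 2.5 mM GSH, 0.5% DMSO final. PGH2 (15 μM) reacted 1 min, stopped with stannous chloride. PGE2 quantified by HTRF, IC50 from nonlinear regression of percent inhibition.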

By inhibition is commonly meant the share of the control response that was lost under treatment. For orientation: IC50 means the concentration at which inhibition is half-maximal. `O=C(NCc1ccc(Cl)c(-c2nn(-c3ccc(C(F)(F)F)cc3)c(=O)[nH]2)c1)C(F)(F)F` [Example-99, N-(4-Chloro-3-(5-oxo-1-(4-(trifluoromethyl)phenyl)-4,5-dihydro-1H-1,2,4-triazol-3-yl)benzyl)-2,2,2-trifluoroacetamide]: the inhibition at 1 µM is 95.3%, the inhibition at 10 µM came out at 98.5% and the IC50 was < 0.05 µM.
For `CC(C)(C)C(=O)NCc1ccc(Cl)c(-c2nn(-c3ccc(C(F)(F)F)cc3)c(=O)[nH]2)c1` [Example-100, N-(4-Chloro-3-(5-oxo-1-(4-(trifluoromethyl)phenyl)-4,5-dihydro-1H-1,2,4-triazol-3-yl)benzyl)pivalamide] the same measures were 100%, 98.6% and < 0.05 µM.
For `O=C(NCc1ccc(Cl)c(-c2nn(-c3ccc(C(F)(F)F)cc3)c(=O)[nH]2)c1)[C@H]1CCCO1` [Example-101, (R)—N-(4-Chloro-3-(5-oxo-1-(4-(trifluoromethyl)phenyl)-4,5-dihydro-1H-1,2,4-triazol-3-yl)benzyl)tetrahydrofuran-2-carboxamide] the same measures were 95%, 98.2% and < 0.05 µM.
For `O=c1[nH]c(-c2cc(CNS(=O)(=O)C3CC3)ccc2Cl)nn1-c1ccc(C(F)(F)F)cc1` [Example-102, N-(4-Chloro-3-(5-oxo-1-(4-(trifluoromethyl)phenyl)-4,5-dihydro-1H-1,2,4-triazol-3-yl)benzyl)cyclopropanesulfonamide] the same measures were 96.5%, 98% and < 0.05 µM.
For the molecule `CC(C)(C)C(=O)NCc1ccc(Cl)c(-c2nn(C3CCCCC3)c(=O)[nH]2)c1F` [Example-103, N-(4-Chloro-3-(1-cyclohexyl-5-oxo-4,5-dihydro-1H-1,2,4-triazol-3-yl)-2-fluorobenzyl)pivalamide], the inhibition at 1 µM is 19.9% and the inhibition at 10 µM came to 51.1%.
On to `O=C(NCc1ccc(Cl)c(-c2nn(-c3ccc(C(F)(F)F)cc3)c(=O)[nH]2)c1)c1ccccc1F` [Example-104, N-(4-Chloro-3-(5-oxo-1-(4-(trifluoromethyl)phenyl)-4,5-dihydro-1H-1,2,4-triazol-3-yl)benzyl)-2-fluorobenzamide], for which the inhibition at 1 µM turned out to be 96.9%, the inhibition at 10 µM is 99.5% and the IC50 is < 0.05 µM.
For `O=C(NCc1ccc(Cl)c(-c2nn(-c3ccc(C(F)(F)F)cc3)c(=O)[nH]2)c1)c1ccno1` [Example-105, N-(4-Chloro-3-(5-oxo-1-(4-(trifluoromethyl)phenyl)-4,5-dihydro-H-1,2,4-triazol-3-yl)benzyl)isoxazole-5-carboxamide] the same measures were 73.9%, 96% and > 0.1 µM.
For `Cc1ccc(CNC(=O)C(F)(F)F)c(C)c1-c1nn(-c2ccc(C(F)(F)F)cc2)c(=O)[nH]1` [Example-106, N-(3-(1-(4-(trifluoromethyl)phenyl)-4,5-dihydro-5-oxo-1H-1,2,4-triazol-3-yl)-2,4-dimethylbenzyl)-2,2,2-trifluoroacetamide] the same measures were 92%, 96.8% and > 0.1 µM.
For `Cc1ccc(CNC(=O)[C@H]2CCCO2)c(C)c1-c1nn(-c2ccc(C(F)(F)F)cc2)c(=O)[nH]1` [Example-107, (R)—N-(2,4-Dimethyl-3-(5-oxo-1-(4-(trifluoromethyl)phenyl)-4,5-dihydro-1H-1,2,4-triazol-3-yl)benzyl)tetrahydrofuran-2-carboxamide], the inhibition at 1 µM turned out to be 56.1% and the inhibition at 10 µM is 90.5%.
For `Cc1ccc(CNC(=O)C(C)(C)C)c(C)c1-c1nn(-c2ccc(C(F)(F)F)cc2)c(=O)[nH]1` [Example-108, N-(3-(1-(4-(Trifluoromethyl)phenyl)-4,5-dihydro-5-oxo-1H-1,2,4-triazol-3-yl)-2,4-dimethylbenzyl)pivalamide], the inhibition at 1 µM stood at 89.8%, the inhibition at 10 µM was 99.7% and the IC50 is > 0.1 µM.
For `O=C(NCc1ccc(Cl)c(-c2nn(-c3ccc(C(F)(F)F)cc3)c(=O)[nH]2)c1)[C@@H]1CCCO1` [Example-109, (S)—N-(4-Chloro-3-(1-(4-(trifluoromethyl)phenyl)-4,5-dihydro-5-oxo-1H-1,2,4-triazol-3-yl)benzyl)-tetrahydro furan-2-carboxamide] the same measures were 97.1%, 97.2% and 0.05 to 0.1 µM.
Regarding `Cn1ccnc1C(=O)NCc1ccc(Cl)c(-c2nn(-c3ccc(C(F)(F)F)cc3)c(=O)[nH]2)c1` [Example-110, N-(4-Chloro-3-(1-(4-(trifluoromethyl)phenyl)-4,5-dihydro-5-oxo-1H-1,2,4-triazol-3-yl)benzyl)-1-methyl-1H-imidazole-2-carboxamide], the inhibition at 1 µM is 47.2% and the inhibition at 10 µM came to 95.1%.
As to `CC(C)(C)C#Cc1ccc(-c2nn(-c3c(Cl)ccc(CNC(=O)C(C)(C)C)c3F)c(=O)[nH]2)cc1` [Example-111, N-(4-Chloro-2-fluoro-3-(4,5-dihydro-3-(4-(3,3-dimethylbut-1-ynyl)phenyl)-5-oxo-1,2,4-triazol-1-yl)benzyl)pivalamide], the inhibition at 1 µM was 87.2%, the inhibition at 10 µM is 96.2% and the IC50 was < 0.05 µM.
As to `CC(C)(C)C(=O)NCc1ccc(Cl)c(-n2nc(-c3ccc(C#CC4CC4)cc3)[nH]c2=O)c1F` [Example-112, N-(4-Chloro-3-(3-(4-(2-cyclopropylethynyl)phenyl)-4,5-dihydro-5-oxo-1,2,4-triazol-1-yl)-2-fluorobenzyl)pivalamide], the inhibition at 1 µM worked out at 99.5%, the inhibition at 10 µM was 99.8% and the IC50 is < 0.05 µM.
On to `O=C(NCc1cc(-c2nn(-c3ccc(C(F)(F)F)cc3)c(=O)[nH]2)c(Cl)cc1F)C(F)(F)F` [Example-113, N-(4-chloro-2-fluoro-5-(1-(4-(trifluoromethyl)phenyl)-4,5-dihydro-5-oxo-1H-1,2,4-triazol-3-yl)benzyl)-2,2,2-trifluoroacetamide], for which the inhibition at 1 µM was 99.3%, the inhibition at 10 µM stood at 99.1% and the half-maximal inhibitory concentration (IC50) is < 0.05 µM.
For `CC(C)(C)C(=O)NCc1cc(-c2nn(-c3ccc(C(F)(F)F)cc3)c(=O)[nH]2)c(Cl)cc1F` [Example-114, N-(4-Chloro-2-fluoro-5-(1-(4-(trifluoromethyl)phenyl)-4,5-dihydro-S-oxo-1H-1,2,4-triazol-3-yl)benzyl)pivalamide] the same measures were 99.1%, 98.4% and < 0.05 µM.
For `CC(C)(CO)C(=O)NCc1ccc(Cl)c(-c2nn(-c3ccc(C(F)(F)F)cc3)c(=O)[nH]2)c1` [Example-115, N-(4-Chloro-3-(1-(4-(trifluoromethyl)phenyl)-4,5-dihydro-5-oxo-1H-1,2,4-triazol-3-yl)benzyl)-3-hydroxy-2,2-dimethylpropanamide] the same measures were 96.5%, 98.2% and < 0.05 µM.
Turning to `O=C(NCc1ccc(Cl)c(-c2nn(-c3ccc(Cl)c(F)c3)c(=O)[nH]2)c1)C(F)(F)F` [Example-116, N-(4-chloro-3-(1-(4-chloro-3-fluorophenyl)-4,5-dihydro-5-oxo-1H-1,2,4-triazol-3-yl)benzyl)-2,2,2-trifluoroacetamide], the inhibition at 1 µM came to 98%, the inhibition at 10 µM was 95.5% and the IC50 was < 0.05 µM.
For the molecule `CC1(C)CCC(n2nc(-c3cc(CNC(=O)C(F)(F)F)ccc3Cl)[nH]c2=O)CC1` [Example-117, N-(4-chloro-3-(4,5-dihydro-1-(4,4-dimethylcyclohexyl)-5-oxo-1H-1,2,4-triazol-3-yl)benzyl)-2,2,2-trifluoroacetamide], the inhibition at 1 µM was 67.9% and the inhibition at 10 µM was determined as 95%.
For `CC1(C)CCC(n2nc(-c3cc(CNC(=O)C(C)(C)C)ccc3Cl)[nH]c2=O)CC1` [Example-118, N-(4-Chloro-3-(4,5-dihydro-1-(4,4-dimethylcyclohexyl)-5-oxo-1H-1,2,4-triazol-3-yl)benzyl)pivalamide], the inhibition at 1 µM is 76.2%, the inhibition at 10 µM is 87.8% and the IC50 was > 0.1 µM.
For `O=C(NCc1cc(-c2nn(-c3ccc(C(F)(F)F)cc3)c(=O)[nH]2)c(Cl)cc1F)[C@H]1CCCO1` [Example-119, (R)—N-(4-chloro-2-fluoro-5-(5-oxo-1-(4-(trifluoromethyl)phenyl)-4,5-dihydro-1H-1,2,4-triazol-3-yl)benzyl)tetrahydrofuran-2-carboxamide] the same measures were 88.7%, 94.3% and < 0.05 µM.
In the case of `CC(C)(C)n1nc(-c2cc(CNC(=O)C(F)(F)F)ccc2Cl)[nH]c1=O` [Example-120, N-(3-(1-tert-butyl-4,5-dihydro-5-oxo-1H-1,2,4-triazol-3-yl)-4-chlorobenzyl)-2,2,2-trifluoroacetamide], the inhibition at 1 µM came out at 11.4% and the inhibition at 10 µM is 46%.
For `CC(C)(C)C(=O)NCc1ccc(Cl)c(-c2nn(C(C)(C)C)c(=O)[nH]2)c1` [Example-121, N-(3-(1-tert-Butyl-4,5-dihydro-5-oxo-1H-1,2,4-triazol-3-yl)-4-chlorobenzyl)pivalamide] the same measures were 16.3% and 72.5%.
